Laboratory results published in patent US20250281424A1 (New York Blood Center, Inc, priority 2020, published 2025).

Target: T1, human PF4 (Homo sapiens, UniProt P02776)
T1 construct: PF4 is a 70 amino acid, lysine-rich 7.8 kDa platelet-specific protein; made in house; host or cells: Escherichia coli BL21DE3 pLysS (pT7-7) and/or Drosophila S2 cells
T1 sequence (P02776 32-101): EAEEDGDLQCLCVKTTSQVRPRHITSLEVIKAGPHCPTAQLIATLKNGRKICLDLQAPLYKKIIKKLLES
Experiment: Inhibition of PF4 tetramer formation (BS3 cross-linking, SDS-PAGE)
Assay type: biochemical
Conditions: for inhibition at 5 µM: 5 μM inhibitor; for inhibition at 5 µM / inhibition at 10 µM: read-out: % inhibition of PF4 tetramer formation at single concentration of inhibitor; for inhibition at 10 µM: 10 μM inhibitor (column A); for IC50: read-out: IC50 of PF4 tetramer formation inhibition
Protocol: Compounds of Examples 1-38, 65-301, 303, 305, 307, 309, 311, 313, 314, 316, and 318-404 were tested using SDS PAGE analysis of BS3 crosslinked PF4 for their ability to prevent PF4 tetramer formation. […] See, Suvarna et al., Throm. Res, 122:211-220 (2008), which is hereby incorporated by reference, at least for a detailed description of this technique.
cDNA encoding human PF4 was cloned into the plasmid μMT/BiPN5-His A (Invitrogen Corp., Carlsbad CA) for expression in the Drosophila Expression System (Invitrogen, Carlsbad, CA). Cloning was performed using Bg1 II and Age I cloning sites. A hexanucleotide encoding Bg1 II site was then eliminated by site-directed mutagenesis so that the expressed protein contained full-length wild type (wt) PF4 or PF4^K50E with an identical sequence as their counterparts expressed in E. coli. See, method described in Sachais et al (Sachais, B. S. et al. (2012). Blood 119(25): 5955-5961). PF4 expression was induced by adding copper sulfate (0.5 mM). The induced S2 cells were incubated in serumfree Insect-Xpress™ media (Lonza, Walkersville, MD) for 3-5 days; supernatants were collected, sodium azide (0.02% final concentration) and EDTA (2.5 mM final concentration) were added, and the media were filtered through an Express® PLUS 0.22 μm filter (Millipore Corp., Billerica, MA).
Wild-type (WT) human PF4 in the pT7-7 vector (Novagen, Madison, WI) was expressed in the Escherichia coli strain BL21DE30 pLysS (Stratagene, La Jolla, CA), and purified and characterized as described by Rauova et al. (Rauova, L. et al. (2006). Blood 107(6): 2346-2353) and Park et al., (Blood, 75:1290-1295 (1990)), which are hereby incorporated by reference. Briefly, recombinant protein was isolated from the supernatant of the bacterial lysate by affinity chromatography using a HiTrap high-performance (HP) affinity column. WT PF4 was purified from the media on a heparin HiTrap® column on an ÄTKAPrime™ system (GE Healthcare) at 4° C. in Tris (10 mM), EDTA (1 mM), and pH 8 buffer. Media was loaded in buffer containing NaCl (0.5 M) and PF4 was eluted at 1.8 M NaCl using a linear gradient. Fractions containing purified PF4 as detected by silver staining of 12% NuPAGE Bis-Tris gels (Invitrogen) were pooled, concentrated and buffer exchanged into 50 mM HEPES, 0.5 M NaCl, pH—7.2 using an Amicon® Ultra centrifugal filter (3K NMWL, Millipore Corp). Protein was quantified using a BCA assay.
Compounds of Examples 1-38, 65-196, and 209-228 were then tested for their ability to inhibit PF4 tetramer formation using a cross-linking assay as described in Rauova cited above. Specifically, hPF4 (10 μg/ml) in phosphate-buffered saline (PBS) was incubated at 37° C. for 15 min in the absence of the antagonistic compounds (control sample) and presence of compounds. Cross-linking and SDS-PAGE analysis were then performed as described in “Analysis of PF4 multimerization” of Rauova. The relative amounts of PF4 in each of the monomer, dimer, trimer and tetramer form were calculated by analyzing the samples on a 12% SDS-polyacrylamide gel under reducing conditions. Bands were quantified using the Kodak ID Image Analysis system (Kodak, Rochester, NY). The SigmaMarker™ reagent served as the molecular weight standard. Data was compiled and bar graphed as % PF4 for the tetramer, trimer, dimer, and monomer as a function of concentration for the test and control samples.
This experiment was performed in a manner similar to experiment 1, but PF4 (10 μg/ml) in PBS was independently incubated with compounds of Examples 1-38, 65-196, and 209-228 for 60 min at room temperature, followed by the addition of cross-linking reagent bis(sulfosuccinimidyl)suberate (0.2 mM) for 30 min at room temperature. The reaction was stopped by adding NuPAGE® lithium dodecyl sulfate (LDS) sample buffer, and denatured by heating to 70° C. for 10 min according to the manufacturer's instructions. […]

Row | inhibition at 5 µM [%] | inhibition at 10 µM [%] | IC50 [µM] | Compound
1 | 43 | 52 | – | O=C(c1ccc2c(c1)C(=O)C(C(=O)NC1CCOCC1)C2=O)c1ccc2c(c1)C(=O)C(C(=O)NC1CCOCC1)C2=O (stereo not shown) [Example 72, 5,5′-carbonylbis(1,3-dioxo-n-(tetrahydro-2h-pyran-4-yl)-2,3-dihydro-1h-indene-2-carboxamide)]
2 | 0 | 0 | – | COCCNC(=O)C1C(=O)c2ccc(S(=O)(=O)c3ccc4c(c3)C(=O)C(C(=O)NCCOC)C4=O)cc2C1=O (stereo not shown) [Example 73, 5,5′-sulfonylbis(n-(2-methoxyethyl)-1,3-dioxo-2,3-dihydro-1h-indene-2-carboxamide)]
3 | 19 | 46 | – | COCCNC(=O)C1C(=O)c2ccc(C(=O)c3ccc4c(c3)C(=O)C(C(=O)NCCOC)C4=O)cc2C1=O (stereo not shown) [Example 74, 5,5′-carbonylbis(n-(2-methoxyethyl)-1,3-dioxo-2,3-dihydro-1h-indene-2-carboxamide)]
4 | 54 | 85 | – | O=C1CC(=O)c2cc(-c3ccc4c(c3)C(=O)CC4=O)ccc21 [Example 75, 1h,1′h,2h,2′h,3h,3′h-[5,5′-biindene]-1,1′,3,3′-tetrone]
5 | – | – | 2.1 | O=C(c1ccc2c(c1)C(=O)C(C(=O)NCC1CC1)C2=O)c1ccc2c(c1)C(=O)C(C(=O)NCC1CC1)C2=O (stereo not shown) [Example 76, N-(cyclopropylmethyl)-5-{2-[(cyclopropylmethyl)carbamoyl]-1,3-dioxo-2,3-dihydro-1H-indene-5-carbonyl}-1,3-dioxo-2,3-dihydro-1H-indene-2-carboxamide]
6 | – | – | 2.3 | CCCCNC(=O)C1C(=O)c2ccc(C(=O)c3ccc4c(c3)C(=O)C(C(=O)NCCCC)C4=O)cc2C1=O (stereo not shown) [Example 77, N-butyl-5-[2-(butylcarbamoyl)-1,3-dioxo-2,3-dihydro-1H-indene-5-carbonyl]-1,3-dioxo-2,3-dihydro-1H-indene-2-carboxamide]

Second part, the compound before the results:

Row | Compound | inhibition at 5 µM [%] | inhibition at 10 µM [%] | IC50 [µM]
7 | O=C(c1ccc2c(c1)C(=O)C(C(=O)Nc1ccc(Cl)cc1)C2=O)c1ccc2c(c1)C(=O)C(C(=O)Nc1ccc(Cl)cc1)C2=O (stereo not shown) [Example 78, N-(4-chlorophenyl)-5-{2-[(4-chlorophenyl)carbamoyl]-1,3-dioxo-2,3-dihydro-1H-indene-5-carbonyl}-1,3-dioxo-2,3-dihydro-1H-indene-2-carboxamide] | – | – | 1.4
8 | O=C(c1ccc2c(c1)C(=O)C(C(=O)Nc1cccc(Cl)c1)C2=O)c1ccc2c(c1)C(=O)C(C(=O)Nc1cccc(Cl)c1)C2=O (stereo not shown) [Example 79, N-(3-chlorophenyl)-5-{2-[(3-chlorophenyl)carbamoyl]-1,3-dioxo-2,3-dihydro-1H-indene-5-carbonyl}-1,3-dioxo-2,3-dihydro-1H-indene-2-carboxamide] | – | – | 1
9 | O=C(c1ccc2c(c1)C(=O)C(C(=O)Nc1ccc(Cl)cc1Cl)C2=O)c1ccc2c(c1)C(=O)C(C(=O)Nc1ccc(Cl)cc1Cl)C2=O (stereo not shown) [Example 80, N-(2,4-dichlorophenyl)-5-{2-[(2,4-dichlorophenyl)carbamoyl]-1,3-dioxo-2,3-dihydro-1H-indene-5-carbonyl}-1,3-dioxo-2,3-dihydro-1H-indene-2-carboxamide] | 90 | 90 | –
10 | Cc1ccccc1NC(=O)C1C(=O)c2ccc(C(=O)c3ccc4c(c3)C(=O)C(C(=O)Nc3ccccc3C)C4=O)cc2C1=O (stereo not shown) [Example 81, N-(2-methylphenyl)-5-{2-[(2-methylphenyl)carbamoyl]-1,3-dioxo-2,3-dihydro-1H-indene-5-carbonyl}-1,3-dioxo-2,3-dihydro-1H-indene-2-carboxamide] | – | – | 4.6
11 | O=C(NCCc1ccc(F)cc1)C1C(=O)c2ccc(S(=O)(=O)c3ccc4c(c3)C(=O)C(C(=O)NCCc3ccc(F)cc3)C4=O)cc2C1=O (stereo not shown) [Example 83, N-[2-(4-fluorophenyl)ethyl]-5-[(2-{[2-(4-fluorophenyl)ethyl]carbamoyl}-1,3-dioxo-2,3-dihydro-1H-inden-5-yl)sulfonyl]-1,3-dioxo-2,3-dihydro-1H-indene-2-carboxamide] | – | – | 2.3
12 | O=C(NCCc1cccc(Cl)c1)C1C(=O)c2ccc(S(=O)(=O)c3ccc4c(c3)C(=O)C(C(=O)NCCc3cccc(Cl)c3)C4=O)cc2C1=O (stereo not shown) [Example 84, N-[2-(3-chlorophenyl)ethyl]-5-[(2-{[2-(3-chlorophenyl)ethyl]carbamoyl}-1,3-dioxo-2,3-dihydro-1H-inden-5-yl)sulfonyl]-1,3-dioxo-2,3-dihydro-1H-indene-2-carboxamide] | – | – | 3
13 | Cc1ccccc1NC(=O)C1C(=O)c2ccc(S(=O)(=O)c3ccc4c(c3)C(=O)C(C(=O)Nc3ccccc3C)C4=O)cc2C1=O (stereo not shown) [Example 85, N-(2-methylphenyl)-5-({2-[(2-methylphenyl)carbamoyl]-1,3-dioxo-2,3-dihydro-1H-inden-5-yl}sulfonyl)-1,3-dioxo-2,3-dihydro-1H-indene-2-carboxamide] | – | – | 2.5
14 | O=C(Nc1cccc(Cl)c1)C1C(=O)c2ccc(S(=O)(=O)c3ccc4c(c3)C(=O)C(C(=O)Nc3cccc(Cl)c3)C4=O)cc2C1=O (stereo not shown) [Example 86, N-(3-chlorophenyl)-5-({2-[(3-chlorophenyl)carbamoyl]-1,3-dioxo-2,3-dihydro-1H-inden-5-yl}sulfonyl)-1,3-dioxo-2,3-dihydro-1H-indene-2-carboxamide] | 73 | 90 | –
15 | O=C(Nc1ccc(Cl)cc1)C1C(=O)c2ccc(S(=O)(=O)c3ccc4c(c3)C(=O)C(C(=O)Nc3ccc(Cl)cc3)C4=O)cc2C1=O (stereo not shown) [Example 87, N-(4-chlorophenyl)-5-({2-[(4-chlorophenyl)carbamoyl]-1,3-dioxo-2,3-dihydro-1H-inden-5-yl}sulfonyl)-1,3-dioxo-2,3-dihydro-1H-indene-2-carboxamide] | – | – | 2.5
16 | COCCCNC(=O)C1C(=O)c2ccc(C(=O)c3ccc4c(c3)C(=O)C(C(=O)NCCCOC)C4=O)cc2C1=O (stereo not shown) [Example 88, N-(3-methoxypropyl)-5-{2-[(3-methoxypropyl)carbamoyl]-1,3-dioxo-2,3-dihydro-1H-indene-5-carbonyl}-1,3-dioxo-2,3-dihydro-1H-indene-2-carboxamide] | – | – | 21
17 | O=C(NCC1CCCO1)C1C(=O)c2ccc(S(=O)(=O)c3ccc4c(c3)C(=O)C(C(=O)NCC3CCCO3)C4=O)cc2C1=O (stereo not shown) [Example 89, 5-[(1,3-dioxo-2-{[(oxolan-2-yl)methyl]carbamoyl}-2,3-dihydro-1H-inden-5-yl)sulfonyl]-1,3-dioxo-N-[(oxolan-2-yl)methyl]-2,3-dihydro-1H-indene-2-carboxamide] | 38 | 66 | –
18 | COCCCNC(=O)C1C(=O)c2ccc(S(=O)(=O)c3ccc4c(c3)C(=O)C(C(=O)NCCCOC)C4=O)cc2C1=O (stereo not shown) [Example 90, N-(3-methoxypropyl)-5-({2-[(3-methoxypropyl)carbamoyl]-1,3-dioxo-2,3-dihydro-1H-inden-5-yl}sulfonyl)-1,3-dioxo-2,3-dihydro-1H-indene-2-carboxamide] | – | – | 4.2
